The source of these data is patent US8664221B2 (Santen Pharmaceutical Co., Ltd., priority 2008, dated 2014).

Assay [1] relates to carrageenan-induced paw edema model in rats. Briefly: Carrageenan-induced paw edema model. The format is in vivo. The settings on record: female Lewis rat; 10 mg/kg oral, 30 minutes before carrageenan; paw volume 3 hr after injection; read-out: Inhibition ratio of paw edema (%). As for the experimental part: The inhibitory effect for paw edema using carrageenan-induced paw edema model in rats is known as one of the general methods for testing the inhibitory effect on inflammation on the joint and the like. Therefore, the inhibitory effect of the present compound for paw edema was carried out, the inhibition rate of paw edema was calculated, and then the anti-inflammatory effect of the present compound was evaluated based on the rate. The concrete method of the test is described below.
A 2 mg/mL test compound suspension was prepared by adding 1% methyl cellulose (base) to the test compound.
1) The weight and right hind paw volume of female Lewis rat (8˜10 weeks) were measured before drug administration.
2) The test compound suspension was administered at 10 mg/kg to the test compound group. Meanwhile, 1% methyl cellulose was administered orally at 5 mL/kg to the sham-operation group and vehicle group (control group).
3) After 30 minutes from oral administration, 0.1 mL of a 1% w/v carrageenan/distilled water solution was subcutaneously injected into right foot pad. 0.1 mL of distilled water was subcutaneously injected for sham-operation group.
4) The right hind paw volume was measured 3 hr after injection of carrageenan or distilled water.
(Formulation Concerning Estimation of Drug Activity) The increase ratio of paw volume (%)=100×(right hind paw volume 3 hr after injection of carrageenan or distilled water (mL)−right hind paw volume before the test compound administration (mL))/right hind paw volume before the test compound administration (mL) (Calculation Equation 1) The inhibition ratio of paw edema (%)=100−100×(the increase ratio of paw volume of each test compound group (%)−the increase ratio of paw volume of sham-operation group (%))/(the increase of paw volume of vehicle group (%)−the increase of paw volume of sham-operation group (%)) (Calculation Equation 2) (Test Results and Discussion)

In assay [2] the test system is IL-6 production induced by lipopolysaccharide (LPS) in human corneal epithelial cells (HCE-T). Description: Inhibition of LPS-induced IL-6 production in human corneal epithelial cells (GR agonist activity). It is filed as cell-based. The settings on record: Corneal epithelial cell, 10 μL of 100 μM test compound solution per well, 4 hours incubation, efficacy relative to DEX.

For assay [3], the system named is choroidal neovascularization (CNV) model in rats. Description: Laser induced choroidal neovascularization model. The format is in vivo. To be noted: Brown Norway male rats; 1% (w/v) eye drops four times a day or 20 mg/mL subconjunctival injection (route not given); fluorescein angiography 7 days after laser; mean of 7-8 eyes. As for the experimental part: The choroidal neovascularization (CNV) model in rats is known as one of the popular methods for evaluating the CNV inhibitory effect of drugs. This method is reported in Graefe's Arch. Cli. Exp. Ophthalmol., 235, 313-319 (1997). According to this method, the CNV examinations were performed to evaluate the CNV inhibitory effect of test compounds by comparing the incidence rates of CNV in vehicle group (control group) with test compound-treated groups.
For eye drop administration, a 1% (w/v) test compound suspension was prepared by adding 0.5% polysorbate 80/saline to the test compound. For subconjunctival injection, a 20 mg/mL test compound suspension was prepared by adding 0.5% hydrogenated castor oil/saline to the test compound.
1) Brown Norway male rats (7-8 weeks) were anesthetized with intramuscular injection (1 mL/kg) of the mixed solution (5% ketamine HCl:2% xylazine HCl=7:1).
2) After mydriasis using tropicamide phenylephrine hydrochloride eye drops (trade name Mydrin P), laser photocoagulation of bruch's membrane in rats was performed with krypton laser photocoagulation machine. Laser irradiation was performed at 8 points per eye avoiding thick retinal blood vessels in ocular fundus and focusing on the depth of retina. The conditions were 100 μm spot size, 100 mW power, 0.1 second duration.
3) After laser photocoagulation, photographs of ocular fundus were taken and the laser photocoagulation (laser irradiation) points were confirmed.
1) In case of eye drops administration, a test compound suspension was administrated four times a day from laser irradiation day (the 1st day) to the 8th day. In case of subconjunctival injection, a 50 μL test compound suspension was injected into conjunctivae just after laser irradiation.
2) In vehicle group (control group), 0.5% polysorbate 80/saline or 0.5% hydrogenated castor oil/saline was used instead of a test compound suspension. And the test was performed according to the method 1).
1) 7 days after laser irradiation, 0.1 mL of 10% fluorescein was injected into rat tail vein and fluorescein angiography was performed.
2) When the fluorescent leakage was not detected in the fluorescent angiography, the spot was judged to be a negative spot. When the fluorescent leakage was detected, the spot was judged to be a positive spot. When the fluorescent leakage was detected as a little leakage, two spots were counted as one positive spot.
3) The neovascular incidence rate was calculated according to the equation 1. According to the equation 2, the ratio of neovascular incidence rate in test compound group to vehicle group was calculated. Neovascular incidence rate (%)=(Positive spots/all spots)×100 (Equation 1) Angiogenic inhibition ratio in test compound group (%)=(1−Ax/Ao)×100 (Equation 2)
Ao: Neovascular incidence rate in vehicle group (control group)
Ax: Neovascular incidence rate in test compound group

The term Emax denotes the maximal effect, on the per cent scale that the assay sets. For `COc1ccccc1NCc1c(-c2ccc(OS(=O)(=O)C3CC3)cc2OC)ccc2c1N(C)C(=O)C(C)(C)N2` [Compound No. 2-2, 7-(4-Cyclopropylsulfonyloxy-2-methoxyphenyl)-8-(2-methoxy-phenylaminomethyl)-1,3,3-trimethyl-3,4-dihydro-1H-quinoxalin-2-one], in assay [1], the inhibition in vivo at 10 mg/kg came out at 51%. In assay [2], this molecule yielded an Emax of 86%. Besides, the “Angiogenic inhibition ratio (%)” value in assay [3] came to 41%.

With `CCCS(=O)(=O)Oc1ccc(-c2ccc3c(c2COc2cc([N+](=O)[O-])ccc2C)N(C)C(=O)C(C)(C)N3)c(OC)c1` [Compound No. 1-38, 7-(2-Methoxy-4-propylsulfonyloxyphenyl)-8-(2-methyl-5-nitrophenoxy-methyl)-1,3,3-trimethyl-3,4-dihydro-1H-quinoxalin-2-one], the inhibition in vivo at 10 mg/kg in assay [1] stood at 50%. In addition, in assay [2], the Emax is 94%. For the same molecule, in assay [3], the “Angiogenic inhibition ratio (%)” value worked out at 33%.
